# Measured values reported in patent US20250034161A1, “SPIROCYCLIC COMPOUND AS KRAS-G12C INHIBITOR” (Shanghai Euregen Biopharma Co., Ltd., priority 2020, published 2025).
# Tested on: NCI-H358 cells
# Experiment: Inhibitory effect on proliferation of NCI-H358 cells (CellTiter-Glo, 72 h)
# Assay type: cell-based, human
# Conditions: not given
# From the text: Inhibitory effect of compounds on the proliferation of […] cells • 1. Experimental principle: NCI-H358 cell is human non-small cell lung cancer cell line expressing KRAS G12C. […] Test materials: NCI-H358 cells were purchased from ATCC; CellTiter-GloR was purchased from Promega (item: G7571); RPMI-1640 was purchased from ATCC (item: 30-2001): fetal bovine serum (FBS) was purchased from EXCELL (item: FND500); Penicillin-streptomycin was purchased from Gibco (item: 15140-122); 0.25% trypsin-ethylenediaminetetraacetic acid digestive juice (Trypsin-EDTA) was purchased from Gibco (item: 25200-072); dimethyl sulfoxide (DMSO) was purchased from Sigma (item: D2650); 96-well plate was purchased from Corning (item: 3610); Incubator was purchased from Thermo (model: 3111); Inverted microscope was purchased from Nikon (item: TS-100); Automatic cell counter was purchased from Life technologies (model: Countess II); Enzyme plate reader was purchased from PerkinElmer (model: Envision); The data processing software was GraphPad Prism 5.0. • 3. Test method:
# Cells in logarithmic growth phase were resuspended in growth medium (RPMI-1640+10% FBS) and diluted to target density ([…]). The above cell suspension was inoculated into 96-well plates at 100 μL per well; incubated overnight in a 37° C., 5% CO2 incubator. Medium was used as background control.
# The test compound was dissolved in DMSO to prepare a stock solution at a concentration of 10 mmol/L. The stock solution was first diluted to 2 mmol/L with DMSO, and then diluted in 3-fold gradient for a total of 10 concentrations. 3 μL of each concentration of the above solution was taken and diluted with 197 μL of growth medium. […] at 50 μL/well in the 96-well plate. The cells to which the test compound was added were incubated in a 37° C., 5% CO2 incubator for 72 hours. The 96-well plate was equilibrated at room temperature, and 40 μL CellTiter-Glo reagent was added to each well. Then, the plate was mixed on the vortex for 2 minutes, incubated at room temperature for 60 minutes. The luminescence value was read on an EnVision microplate reader, and the IC50 of the compound was calculated using the GraphPad Prism 5.0 software.
row,IC50 [nM],SMILES
1,1000 to 10000,CN1CCC[C@H]1COc1nc2c(c(N3CCN(C(=O)/C=C/CF)[C@@H](CC#N)C3)n1)CN(C)C1(CCc3ccccc31)C2 (stereo partly shown) [Compound 14]
2,1000 to 10000,C=CC(=O)N1CCN(c2nc(OC[C@@H]3CCCN3C)nc3c2CN(C)C2(CCc4ccccc42)C3)[C@@H](C)C1 (stereo partly shown) [Formate of 4]
3,100 to 1000,C=CC(=O)N1CCN(c2nc(OC[C@@H]3CCCN3C)nc3c2CNC2(CCc4cccc(F)c42)C3)C[C@@H]1CC#N (stereo partly shown) [Formate of 10]
4,1000 to 10000,C=CC(=O)N1CCN(c2nc(OC[C@@H]3CCCN3C)nc3c2CN(C)C2(CCc4ccc(F)cc42)C3)C[C@@H]1CC#N (stereo partly shown) [Formate of 11]
5,100 to 1000,CN(C)C/C=C/C(=O)N1CCN(c2nc(OC[C@@H]3CCCN3C)nc3c2CN(C)C2(CCc4cccc(F)c42)C3)C[C@@H]1CC#N (stereo partly shown) [Formate of 15]
6,< 100,C=CC(=O)N1CCN(c2nc(OC[C@@H]3CCCN3C)nc3c2CN(C)C2(CCc4cccc(Cl)c42)C3)C[C@@H]1CC#N (stereo partly shown) [Formate of 18]
7,< 100,C=CC(=O)N1CCN(c2nc(OC[C@@H]3CCCN3C)nc3c2CN(C)C2(CCCc4ccccc42)C3)C[C@@H]1CC#N (stereo partly shown) [Formate of 20]
8,100 to 1000,C=CC(=O)N1CCN(c2nc(OC[C@@H]3CCCN3C)nc3c2CN(C)C2(CCOc4ccccc42)C3)C[C@@H]1CC#N (stereo partly shown) [Formate of 22]
9,100 to 1000,C=CC(=O)N1CCN(c2nc(OC[C@@H]3CCCN3C)nc3c2CN(C)C2(CCc4c(OC)cccc42)C3)C[C@@H]1CC#N (stereo partly shown) [Formate of 24]
10,< 100,C=CC(=O)N1CCN(c2nc(OC[C@@]34CCCN3C[C@H](F)C4)nc3c2CN(C)C2(CCc4cccc(Cl)c42)C3)C[C@@H]1CC#N (stereo partly shown) [Formate of 34]

# Same assay, conditions: Homo sapiens
row,IC50 [nM],SMILES
1,1000 to 10000,C=CC(=O)N1CCN(c2nc(OCC3CCCN3C)nc3c2CN(C)C2(CCc4ccccc42)C3)CC1 (stereo not shown) [Compound 1]
2,100 to 1000,C=CC(=O)N1CCN(c2nc(OC[C@@H]3CCCN3C)nc3c2CN(C)C2(CCc4ccc(Cl)cc42)C3)C[C@@H]1CC#N (stereo partly shown) [Compound 5]
3,< 100,C=C(F)C(=O)N1CCN(c2nc(OC[C@@]34CCCN3C[C@H](F)C4)nc3c2CN(C)C2(CCc4cccc(Cl)c42)C3)C[C@@H]1CC#N (stereo partly shown) [Compound 35]
